Assay results as given in patent US20220257698A1, “ANGIOTENSIN TYPE 2 (AT2) RECEPTOR AGONISTS FOR USE IN THE TREATMENT OF CANCER” (LANTHIOPEP B.V., priority 2019, published 2022).

What was measured:
Type in all cases: in vivo, cd1 nu/nu mice (human GBM cell line)
U87MG glioblastoma CDX [1] = test: Subcutaneous U87MG glioblastoma CDX: tumor weight and time of tumor progression; conditions: for tumor weight [%]: relative to vehicle = 100
Description: Effects of KcAng(1-7) were evaluated in vivo in a subcutaneous GBM xenograft model in nude mice. Insurgence of neurologic phenomena and differences in the survival rates were evaluated. Human GBM cell lines U87MG and U251MG were used. Cell lines were grown in DMEM nutrient mixture supplemented with 10% fetal bovine serum, 1% penicillin/streptomycin, and 25 mM HEPES buffer. All cell lines were cultured at 37° C. in a humidified atmosphere consisting of 5% CO2 and 95% air. Medium was changed every 2 days and the cell morphology was evaluated under microscope daily.
Six-week-old male athymic nude mice (age 5-7 weeks) were housed with free access to food and water in a temperature-controlled room. Each group is represented by 10 xenograft cd1 nu/nu mice. The mice were injected s.c. in the right distal hind limb with one million of cultured human tumor cell lines suspended in 0.15 mL of 2:1 solution of PBS/Matrigel (Matrigel BD Biosciences). Xenografts were measured every four days with a digital caliper in two perpendicular dimensions. Tumor volume was calculated according to the following formula:
Tumor volume=(tumor width)×(tumor width)×(tumor length)÷2
At the end of experiments, mice were euthanized and tumors removed. Weight loss or other signs of distress such as hunched posture were checked during and after treatments.
Efficacy of treatment was evaluated by: (1) the size of tumors (vehicle control and treated), (2) the relative weight at the end of experiment, and (3) the indirect evaluation of angiogenesis by determining hemoglobin levels.
In vivo tumor response to treatment was evaluated using the following parameters: (i) Complete response (CR): defined as the disappearance of a measurable lesion, (ii) Partial response (PR): defined as a reduction of greater than 50% of the sum of the products of the cross-sectional diameters of the measurable lesion, (iii) Stable disease (SD): defined as a reduction of less than 50% or an increase of less than 25% in the sum of the products of the cross-sectional diameters of the measurable lesions, (iv) Tumor progression (TP): defined as an increase of greater than […] in the sum of the products of the cross-sectional diameters of the measured lesion, (v) Time to progression (TTP) defining the tumor growth delay. Tumor progression was calculated through the analysis of bioluminescence imaging (BLI) photon counts and when possible through the analyses of tumor volumes calculated by magnetic resonance imaging (MRI), (vi) Disease free survival (DFS) is the time elapsed between the time point at which no luciferase activity is detectable anymore and the death of the animal, (vii) Overall survival (OS) is the time elapsed between tumor inoculation and death of the animal. […] Luciferase transfected cells were used for bioluminescence evaluations.
Data are presented as mean and standard error of the mean (SEM) or standard deviation (SD). Statistical comparisons between control and treated groups were established by carrying out the Kruskal-Wallis test (a nonparametric one-way analysis of variance) or the Mann-Whitney test (in the case of two groups). The level of significance was corrected by multiplying the P value by the number of comparisons performed (n) according to […] correction. TP, TTP and DFS were analyzed by Kaplan-Meier curves and Gehan's generalized Wilcoxon test. All statistical analyses were undertaken using SPSS 10.0.
Mice with U87MG cell CDX were randomized at day 0. KcAng(1-7) was injected daily subcutaneously (0.2 μg/kg) starting at day 0 until the (ethical) endpoint maximally at day 42. TMZ was administered at 16 mg/kg during 5 consecutive days, that is from […]. Volumetric evaluation of the tumor was performed every 4 days and tumor weight was measured at the end of the experiment.
Synergism was determined using the methods described in Clarke et al. Breast Cancer Research and Treatment 46:255-278 (1997).
Mice with U87MG cell CDX were randomized at day 0. […]

U87MG glioblastoma CDX [2] = test: Tumor hemoglobin level (indirect angiogenesis) in U87MG CDX; conditions: KcAng(1-7) 1 μg/kg/d, Losartan 20 mg/kg/d, or both
Description: Efficacy of treatment was evaluated by: […] Mice with U87MG cell CDX were randomized at day 0. KcAng(1-7) was injected subcutaneously (1 μg/kg) on a daily basis. Losartan was administered intraperitoneal at 20 mg/kg/day. […] In brief, tumors were homogenized in double-distilled water. Eighty microliters of homogenates were mixed with 1 mL of Drabkin's solution and incubated for 15 min at room temperature. After centrifugation at 400×g for 5 min, the supernatants were subjected to absorbance measurement at 540 nm. The absorption, which is proportional to hemoglobin concentration, was divided by tumor weight.

U251MG glioblastoma CDX [3] = test: Subcutaneous U251MG glioblastoma CDX: time of tumor progression; conditions: KcAng(1-7) 1 μg/kg/d, Losartan 20 mg/kg/d, or both
Description: Effects of KcAng(1-7) were evaluated in vivo in a subcutaneous GBM xenograft model in nude mice. Insurgence of neurologic phenomena and differences in the survival rates were evaluated. Human GBM cell lines U87MG and U251MG were used. Cell lines were grown in DMEM nutrient mixture supplemented with 10% fetal bovine serum, 1% penicillin/streptomycin, and 25 mM HEPES buffer. All cell lines were cultured at 37° C. in a humidified atmosphere consisting of 5% CO2 and 95% air. Medium was changed every 2 days and the cell morphology was evaluated under microscope daily. Six-week-old male athymic nude mice (age 5-7 weeks) were housed with free access to food and water in a temperature-controlled room. Each group is represented by 10 xenograft cd1 nu/nu mice. […] Xenografts were measured every four days with a digital caliper in two perpendicular dimensions. Tumor volume was calculated according to the following formula: In vivo tumor response to treatment was evaluated using the following parameters: […] […] TP, TTP and DFS were analyzed by Kaplan-Meier curves and Gehan's generalized Wilcoxon test. […]

U251MG glioblastoma CDX [4] = test: Tumor hemoglobin level (indirect angiogenesis) in U251MG CDX; conditions: KcAng(1-7) 1 μg/kg/d, Losartan 20 mg/kg/d, or both
Description: Efficacy of treatment was evaluated by: […] In brief, tumors were homogenized in double-distilled water. Eighty microliters of homogenates were mixed with 1 mL of Drabkin's solution and incubated for 15 min at room temperature. After centrifugation at 400×g for 5 min, the supernatants were subjected to absorbance measurement at 540 nm. The absorption, which is proportional to hemoglobin concentration, was divided by tumor weight. Effect of KcAng(1-7) and Losartan against heterotopic U251MG cell culture-based xenografts (CDX) in mice. Animals were treated either with vehicle, treated with 20 mg/kg/d Losartan, treated with 1 μ[…](1-7) or treated with a combination of KcAng(1-7) and with Losartan.

Structure (SMILES) | Time of tumor progression - TTP, mean (days ± SD) (U87MG glioblastoma CDX [1]; KcAng(1-7) 0.2 μg/kg/d s.c., TMZ 16 mg/kg for 5 days, or both) | Tumor weight, mean (mg ± SD) (U87MG glioblastoma CDX [1]; end of experiment, KcAng(1-7) 0.2 μg/kg/d s.c., TMZ 16 mg/kg for 5 days, or both) | tumor weight [%] (U87MG glioblastoma CDX [1]; KcAng(1-7) 0.2 μg/kg/d, TMZ 16 mg/kg, or both) | Tumor hemoglobin level, mean (± SEM) (U87MG glioblastoma CDX [2]) | Time of tumor progression - TTP, mean (days ± SEM) (U251MG glioblastoma CDX [3]) | Time of tumor progression - TTP, mean (days ± SEM) (U87MG glioblastoma CDX [1]; KcAng(1-7) 1 μg/kg/d s.c., Losartan 20 mg/kg/d i.p., or both) | Tumor weight, mean (mg ± SEM) (U87MG glioblastoma CDX [1]; KcAng(1-7) 1 μg/kg/d s.c., Losartan 20 mg/kg/day i.p., or both) | tumor weight [%] (U87MG glioblastoma CDX [1]; KcAng(1-7) 1 μg/kg/d, Losartan 20 mg/kg/d, or both) | Tumor hemoglobin level, mean (± SEM) (U251MG glioblastoma CDX [4])
Cn1nnc2c(C(N)=O)ncn2c1=O [Temozolomide, temozolomide, reference compound] | 17.00 ± 0.54 days | 445 ± 28 mg | 42.8% | – | – | – | – | – | –
CCCCc1nc(Cl)c(CO)n1Cc1ccc(-c2ccccc2-c2nn[nH]n2)cc1 [Losartan, reference compound] | – | – | – | 15.2 ± 1.0 mg hemoglobin/g of tissue | 10.6 ± 0.6 days | 13.0 ± 0.6 days | 830 ± 57 mg | 79.8% | 32.1 ± 3.1 mg Hb/g of tissue
